From paper PMC7504817, “Phenylalanine Stereoisomers of CJ-15,208 and [D-Trp]CJ-15,208 Exhibit Distinctly Different Opioid Activity Profiles” (Molecules, 2020)
“Also recorded” adds a separate entry of the source. Like-named read-outs stand apart in the source and are kept apart here.

Columns and labels:
rat MOR = target: T1, rat MOR (Rattus norvegicus, UniProt P33535); test: Radioligand equilibrium competition binding, MOR; details: [3H]DAMGO; membranes from CHO cells expressing rat MOR; mean ± SEM, at least three experiments
T1 construct: expressed in transfected cells

[1] = Metabolic stability in mouse liver microsomes; format: in vitro ADME; details: pH 7.4, 5 µM peptide, 0.25 mg/mL protein, with NADPH, 37 °C, read-out: t1/2 in mouse liver microsomes
Description: The macrocyclic tetrapeptide (5 µM) in 1% acetonitrile was incubated with mouse liver microsomes (0.25 mg/mL protein, Xenotech, Lenexa, KS, USA) at 37 °C in the presence or absence of co-factor NADPH RapidStart System (1 mM, Xenotech) or NADPH solution (Sigma, St. Louis, MO, USA) in potassium phosphate buffer (50 mM, pH 7.4). Aliquots (100 µL) taken at 0, 5, 15, 30, 60 and 120 min were quenched with ice-cold acetonitrile (1 vol) containing internal standard ([D-NMeAla^2]CJ-15,208 [26], 5 µM) to precipitate the proteins. The lack of endogenous interference with the analysis of the stereoisomer or internal standard was confirmed by analyzing samples lacking the macrocyclic tetrapeptide.
Following centrifugation at 10,000× g rpm for 10 min, the supernatant (50 µL) was diluted with water (75 µL), stored overnight at −20 °C and analyzed by LC-MS/MS using methodology similar to that described for [D-Trp]CJ-15,208 [32]. Liquid chromatography was performed on a Hypersil BDS C8 column (50 mm × 2.1 mm, 3 µm) with a flow rate of 0.2 mL/min and an injection volume of 20 µL using an Acquity UPLC system (Waters, Milford, MA, USA). The peptides were separated using a gradient of aqueous acetonitrile containing 0.08% formic acid of 20% B (0–2 min), 20–50% B (2–3 min), 50–80% B (3–6 min), 80% B (6–7 min), 80–20% B (7–8 min) and 20% B (8–10 min).
ESI-MS/MS was performed on a Waters Quatro triple quadrupole instrument operating in the positive ion multiple reaction monitoring mode. Data acquisition was carried out with Mass Lynx 4.1 software with the following settings: capillary voltage, 2500 V; cone voltage, 30 V; source temperature, 100 °C; desolvation temperature, 250 °C; cone gas flow, 279 L/h; desolvation gas flow, 1157 L/h; LM 1 resolution, 14; HM 1 resolution, 14; ion energy 1, 1.0; MS/MS mode entrance, -1; MS/MS collision energy, 35 eV; MS/MS mode exit, 2; LM 2 resolution, 13.0; HM 2 resolution, 13.0; ion energy 2, 1.5; multiplier, 650; collision cell pressure, 1.63 × 10^−3 mbar; collision gas, argon. The transition m/z 578.2 ([M + H]^+) → 217.2 was monitored to determine the peak area counts of the stereoisomers, and m/z 566.2 ([M + H]^+) → 232.9 was monitored to determine the peak area counts of the internal standard (collision energy 22 eV) with the following settings: dwell time, 0.3 s; delay, 0.05 s.

C57BL/6J mice [2] = test: Acute antinociceptive tolerance (tail-withdrawal assay, dosing at 0 and 8 h); details: i.c.v.; for Fold-Shift, Naïve ED50 vs. Second ED50: 0 h vs 8 h; for acute antinociceptive tolerance: ED50 at 8 h vs 0 h; for Naïve ED50 (95% C.I.): naïve C57BL/6J mice, tail-withdrawal assay; for ED50 (95% C.I.) Pretreated Mice: 8 h after pretreatment with ED50 dose of the same compound, * significantly different from naïve
rat KOR [3] = target: T2, rat KOR (Rattus norvegicus, UniProt P34975); test: biochemical
KOR = target: T3, KOR (Mus musculus, UniProt P33534); test: Antagonist activity against KOR-selective agonist U50,488 (tail-withdrawal assay); format: in vivo; details: stereoisomer 30 nmol i.c.v. pretreatment; U50,488 10 mg/kg i.p.
T3 construct: from tissue; host or cells: whole animal, C57BL/6J mice

C57BL/6J mice [4] = test: 55 °C warm-water tail-withdrawal assay (antinociception); format: in vivo, mouse; details: for duration of significant antinociception: i.c.v. administration; for ED50 (and 95% C.I.) i.c.v. / ED50 (and 95% C.I.) p.o.: C57BL/6J mice, antinociception at peak response; for antinociceptive efficacy / ED50 (and 95% C.I.) p.o.: p.o.
Description: For intracerebroventricular (i.c.v.) administration the macrocyclic tetrapeptides were dissolved in dimethyl sulfoxide (DMSO), followed by addition of sterile saline (0.9%) so that the final vehicle was 50% DMSO and 50% saline, and the i.c.v. injections performed as described previously. This concentration of DMSO was not observed to have antinociceptive or behavioral effects in previous use. For per os (p.o.) administration the macrocyclic tetrapeptides were administered in 10% Solutol in 0.9% saline. All solutions for animal administration were prepared fresh daily.
The 55 °C warm-water tail-withdrawal assay was performed in mice as previously described, with the latency of the mouse to withdraw its tail from the water taken as the endpoint (a cut-off time of 15 sec was used in this assay). Antinociception was calculated according to the following formula: % antinociception = 100 × (test latency − control latency)/(15 − control latency). Tail-withdrawal data points are the means of 8–16 mice, unless otherwise indicated, with SEM shown by error bars.
All dose-response lines were analyzed by regression, and ED50 (effective dose producing 50% antinociception) values and 95% confidence intervals (C.I.) determined using individual data points from graded dose-response curves with Prism 8.0 software (GraphPad, La Jolla, CA, USA). Percent antinociception was used to determine within group effects and to allow comparison to baseline latency in tail-withdrawal experiments. The statistical significance of differences between ED50 values was determined by evaluation of the ED50 value shift via nonlinear regression modeling with Prism software. Significant differences in behavioral data were analyzed by ANOVA (one-way or two-way with repeated measures (RM), as appropriate). Significant results were further analyzed with Sidak’s, Tukey’s, or Dunnett’s multiple comparison post hoc tests, as appropriate. Data for conditioned place preference experiments were analyzed by two-way RM ANOVA, with analyses examining the main effect of conditioned place preference phase (e.g., pre- or post-conditioning) and the interaction of drug pretreatment. Significant effects were further analyzed using Sidak’s HSD post hoc testing. All data are presented as mean ± SEM, with significance set at p < 0.05.

C57BL/6J mice [5] = details: mouse, in vivo
C57BL/6J mice [6] = test: Opioid receptor involvement in antinociception (antagonist pretreatment, tail-withdrawal assay); format: in vivo, mouse; details: i.c.v. (1, 3, 4, 5 at 10 nmol, 2 at 100 nmol); pretreatment with β-FNA, nor-BNI or naltrindole
C57BL/6J mice [7] = details: mouse, in vivo; remark: listed apart in the source
rat KOR [8] = target: T2, rat KOR; details: ratio Ki(MOR)/Ki(KOR)
C57BL/6J mice [9] = details: mouse, in vivo; remark: listed apart in the source
DOR = target: T4, DOR (Mus musculus, UniProt P32300); test: Antagonist activity against DOR-selective agonist SNC-80 (tail-withdrawal assay); format: in vivo; details: stereoisomer 100 nmol i.c.v. pretreatment; SNC-80 100 nmol i.c.v.
T4 construct: from tissue; host or cells: whole animal, C57BL/6J mice

[10] = set-up: method as in Khaliq et al., manuscript in preparation; details: ref Khaliq et al., manuscript in preparation; cited from earlier work
mouse DOR = details: radioligand binding; ref [19]; cited from earlier work
C57BL/6J mice [11] = details: mice, ref [19], [20], cited from earlier work
C57BL/6J mice [12] = details: ref [19], [20]; cited from earlier work
C57BL/6J mice [13] = test: Conditioned place preference / aversion assay; details: 10 mg/kg, i.p., two-day place conditioning
C57BL/6J mice [14] = test: Respiration and ambulation, CLAMS/Oxymax system; details: 10 mg/kg, i.p.; 60 min

T2 sequence (P34975 whole entry): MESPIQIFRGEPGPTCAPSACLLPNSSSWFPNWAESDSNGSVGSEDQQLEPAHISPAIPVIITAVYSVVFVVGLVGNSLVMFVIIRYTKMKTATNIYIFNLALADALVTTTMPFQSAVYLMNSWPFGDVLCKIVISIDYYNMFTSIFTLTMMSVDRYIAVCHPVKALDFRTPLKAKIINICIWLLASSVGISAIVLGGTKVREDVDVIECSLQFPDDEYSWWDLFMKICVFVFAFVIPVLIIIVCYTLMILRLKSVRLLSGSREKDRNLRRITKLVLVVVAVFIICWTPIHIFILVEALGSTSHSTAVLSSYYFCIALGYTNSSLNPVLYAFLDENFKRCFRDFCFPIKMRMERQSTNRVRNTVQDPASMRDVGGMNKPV
T1 sequence (P33535 whole entry): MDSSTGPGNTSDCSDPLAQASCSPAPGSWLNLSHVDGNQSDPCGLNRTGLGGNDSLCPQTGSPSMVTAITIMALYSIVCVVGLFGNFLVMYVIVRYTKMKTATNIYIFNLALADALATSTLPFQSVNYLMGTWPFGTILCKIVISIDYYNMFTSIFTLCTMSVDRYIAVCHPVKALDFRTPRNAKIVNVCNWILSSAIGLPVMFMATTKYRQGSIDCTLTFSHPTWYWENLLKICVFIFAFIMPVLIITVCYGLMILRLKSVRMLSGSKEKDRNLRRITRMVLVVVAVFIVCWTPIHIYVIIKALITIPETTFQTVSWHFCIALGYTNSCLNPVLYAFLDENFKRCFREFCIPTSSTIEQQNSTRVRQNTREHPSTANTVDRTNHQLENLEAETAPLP
T4 sequence (P32300 whole entry): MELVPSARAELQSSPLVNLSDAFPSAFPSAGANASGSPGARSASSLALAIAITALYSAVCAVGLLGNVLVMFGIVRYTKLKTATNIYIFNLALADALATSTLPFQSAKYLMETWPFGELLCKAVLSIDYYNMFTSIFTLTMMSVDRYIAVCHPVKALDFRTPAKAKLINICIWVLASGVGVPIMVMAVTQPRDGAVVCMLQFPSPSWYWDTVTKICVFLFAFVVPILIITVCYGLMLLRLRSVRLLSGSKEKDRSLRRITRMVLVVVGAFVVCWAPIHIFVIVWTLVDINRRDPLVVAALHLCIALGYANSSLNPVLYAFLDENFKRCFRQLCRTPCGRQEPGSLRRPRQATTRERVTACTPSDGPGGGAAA
T3 sequence (P33534 whole entry): as the sequence (P34975 whole entry) above, with E11D, A17S, P51S, V308A counted along it

Row | SMILES | Ki (rat MOR) | half-life at 5 µM [1] | Fold-Shift, Naïve ED50 vs. Second ED50 (C57BL/6J mice [2]) | acute antinociceptive tolerance (C57BL/6J mice [2]) | Naïve ED50 (95% C.I.) (C57BL/6J mice [2]) | Ki (rat KOR [3]) | time of peak antinociception (C57BL/6J mice [4]; after i.c.v. administration) | duration of significant antinociception (C57BL/6J mice [4]) | ED50 (and 95% C.I.) i.c.v. (C57BL/6J mice [4]) | antinociceptive efficacy (C57BL/6J mice [4]) | time of peak antinociception (C57BL/6J mice [4]; p.o. administration) | ED50 (and 95% C.I.) p.o. (C57BL/6J mice [4]) | effect on coordinated locomotor performance (rotarod) vs vehicle (C57BL/6J mice [5]) | Receptors Involved (in antinociception) (C57BL/6J mice [6]) | Selectivity Ki (MOR) Ki (KOR) (rat KOR [8]) | ED50 (95% C.I.) Pretreated Mice (C57BL/6J mice [2]) | further results
1 | O=C1N[C@H](Cc2ccccc2)C(=O)N2CCC[C@@H]2C(=O)N[C@@H](Cc2ccccc2)C(=O)N[C@H]1Cc1c[nH]c2ccccc12 (single isomer, unassigned) [Stereoisomer 1, cyclo[D-Phe-D-Pro-Phe-Trp]] | > 10000 nM | 54 min | 31.2 fold | greater acute antinociceptive tolerance than CJ-15,208 | 0.65 (0.31–1.31) nmol | 5120 ± 690 nM | 20 min | intermediate duration | 0.75 (0.36–1.44) nmol | full antinociception | 20 to 30 min | 7.62 (5.12–12.2) mg/kg | limited impairment of performance | all three opioid receptors contributed to the antinociception; also recorded: KOR, MOR, DOR |  |  | antagonism of U50,488 antinociception (KOR antagonist activity) (KOR): significant antagonism of U50,488
2 | O=C1N[C@H](Cc2ccccc2)C(=O)N[C@H](Cc2c[nH]c3ccccc23)C(=O)N[C@@H](Cc2ccccc2)C(=O)N2CCC[C@H]12 (single isomer, unassigned) [Stereoisomer 5, cyclo[Phe-D-Pro-D-Phe-D-Trp]] | 5800 ± 1450 nM | 15 min | 1.09 fold | Neither stereoisomer 4 or 5 demonstrated any significant changes in the ED50 values | 0.45 (0.28–0.70) nmol | 353 ± 19 nM | 30 min | 90 min | 0.56 (0.38–0.91) nmol | full antinociception | 20 to 30 min | 4.72 (3.70–6.39) mg/kg | lacked any significant effect | all three opioid receptors contributed to the antinociception; also recorded: KOR, MOR, DOR | 16 | 0.49 (0.09–1.36) nmol | conditioned place preference or aversion (C57BL/6J mice [7]): no significant preference or aversion; effect on respiration rate vs vehicle (C57BL/6J mice [9]): significant decreases in respiration rates; antagonism of SNC-80 antinociception (DOR antagonist activity) (DOR): significantly antagonized SNC-80
3 | O=C1N[C@@H](Cc2ccccc2)C(=O)N2CCC[C@@H]2C(=O)N[C@@H](Cc2ccccc2)C(=O)N[C@H]1Cc1c[nH]c2ccccc12 [CJ-15,208, cyclo[Phe-D-Pro-Phe-Trp]] | 451 ± 114 nM |  | 2.87 fold |  | 1.82 (1.22–2.74) nmol | 27.4 ± 4.6 nM |  |  |  |  |  |  |  |  | 16.5 | 5.23 (4.23–6.48) nmol | half-life in mouse liver microsomes [10]: 49 min; affinity for DOR (mouse DOR): negligible affinity for DOR; ED50 (and 95% C.I.) i.c.v. (C57BL/6J mice [11]; i.c.v.): 1.74 (0.62–4.82) nmol; ED50 (and 95% C.I.) p.o. (C57BL/6J mice [11]; p.o.): 3.49 (1.98–5.73) mg/kg; Receptors Involved (in antinociception) (C57BL/6J mice [12]): KOR, MOR
4 | CN1CC[C@]23c4c5ccc(O)c4O[C@H]2[C@@H](O)C=C[C@H]3[C@H]1C5 [Morphine, morphine, reference compound] |  |  | 7.63 fold | demonstrated acute antinociceptive tolerance | 2.91 (2.48–3.41) nmol |  |  |  |  |  |  |  |  |  |  |  | conditioned place preference or aversion (C57BL/6J mice [13]): significant place-preference for the morphine-paired chamber; effect on ambulation vs vehicle (C57BL/6J mice [14]): robust, significant increases in ambulation; effect on respiration rate vs vehicle (C57BL/6J mice [14]): significant, time-dependent respiratory depression
